From patent publication US8592451B2, “Reversible nondepolarizing neuromuscular blockade agents and methods for their use” (Cornell University, priority 2009, dated 2013)

Tested on: twitch of the extensor digitorum
Test: Neuromuscular blocking potency and duration in anesthetized rhesus monkeys
Type: in vivo, rhesus monkeys (Macaca mulatta)
Conditions: in vivo, comparable level of neuromuscular blockade

COc1ccc(C[C@@H]2c3cc(OC)c(OC)cc3CC[N@@+]2(C)CCCOC(=O)/C=C\C(=O)OCCC[N@+]2(C)CCc3cc(OC)c(OC)cc3[C@H]2Cc2cc(OC)c(OC)c(OC)c2)cc1OC [CW 011]
potency relative to CW 002: approximately twice | potency relative to gantacurium: four times
